In brackets after ≈: the same amount, converted by molar mass. Values belong to the molecule of their own block, whether it stands above or below them.
Key:
ACC1 [1] = settings: enzyme isolated from rat, mouse, monkey and human; cited from earlier work
ACC2 = settings: enzyme isolated from rat, mouse, monkey and human; cited from earlier work
[2] = Log P and Log D determination (potentiometric); type: physicochemical; settings: octanol/water, pH 7.4
Description: Log P analysis was performed using a potentiometric (pH-metric) method. The sample was titrated in various ratios of octanol/water in two titrations covering the pH range from 1.9 to 12.0 at concentrations of 1.0 to 0.6 mM. The shift of the aqueous pKa in the presence of octanol was used to determine log P of the neutral and anionic species. From this information a lipophilicity profile was constructed, such that that log D at a given pH could be determined.

[3] = Competitive slurrying of crystal forms; type: physicochemical
[4] = Dynamic vapor sorption (DVS); type: physicochemical; settings: for state or form of the material after the DVS experiment: post DVS, XRPD
Description: For DVS analysis as discussed in Example 8, approximately 10 milligrams of sample was placed into a mesh vapor sorption balance pan and loaded into a DVS-1 dynamic vapor sorption balance (Surface Measurement Systems). The sample was subjected to a ramping profile from 0-90% relative humidity (RH) at 10% increments, maintaining the sample at each step until a stable weight had been achieved (99.5% step completion). After completion of the sorption cycle, the sample was dried using the reverse procedure, lowering the RH to 0%. The weight change during the sorption/desorption cycles was plotted.
For Examples 2, 5, 7, 9, and 13 to 18, hygroscopicity was studied using dynamic vapor sorption (DVS, TA Q5000 SA, TA Instruments, New Castle, Del. or DVS, DVS Intrinsic, Surface Measurement Systems, London, UK). A sample (2-20 mg) was placed in an aluminum DVS pan and loaded on the sample side of the twin pan balance. The water sorption and desorption were studied as a function of relative humidity (RH) at 25° C. In 10% RH increments, the relative humidity was increased from 5% RH to 95% RH and then decreased back to 5%. […] Data analysis was performed using Universal Analysis 2000 Version 4.7A (TA Instruments, New Castle, Del.) for TA DVS runs and Microsoft Excel for SMS DVS runs.

Aqueous solubility = type: physicochemical
Description: Purity and concentration analyses were carried out using the following method: […]

[5] = Storage stability at 40° C. and 75% RH; type: physicochemical; settings: 7 days at 40° C. and 75% RH
Description: 100 milligrams of Form IV of Compound 1, prepared according to the method of Example 5, was heated to 80° C. in an oven. Form VII was confirmed to be a desolvated form of Form IV, produced by drying the methanol solvate Form IV. […] Differential scanning calorimetry (DSC) results (FIG. 40) were consistent with thermogravimetric analysis. […] (peak at 141.4° C.), with the peak of the exotherm at 151.6° C. […] (peak at 195.0° C.). A smaller endotherm with a peak at 207.0° C. was likely to indicate formation of a higher melting crystalline form. […] The uptake between 40 and 70% RH could potentially be indicative of hydrate formation (tentatively assigned the name Form IX). […] NMR and IR data confirmed the structural integrity of Compound 1 present.

[6] = Prolonged exposure to water (XRPD); type: physicochemical
ACC1 [7] = target: ACC1 (Homo sapiens, UniProt Q13085); experiment: Inhibition of ACC1 by metabolites of Compound 1; type: biochemical
[8] = acetone, acetonitrile:water (10%), ethanol, ethyl acetate, ambient temperature and 60° C., XRPD and DSC

SMILES: O=C(c1c2ccccc2cc2ccccc12)N1CCC(N2CCC[C@@H](C(=O)N3CCOCC3)C2)CC1 [CP-640186]
IC50 (ACC1 [1]): ~0.06 µM | IC50 (ACC2): ~0.06 µM

logD [2]: 1.06 | relative thermodynamic stability ([3]; between 22-60° C.): more thermodynamically stable form | weight gain (moisture sorption) ([4]; at about 95% RH): ~0.45% | state or form of the material after the DVS experiment [4]: had not changed forms | solubility (Aqueous solubility; aqueous medium, aqueous buffer, pH 5.5 and below): < 0.01 mg/mL
SMILES: COc1ccccc1[C@H](Cn1c(=O)n(C(C)(C)C(=O)O)c(=O)c2c(C)c(-c3ncco3)sc21)OC1CCOCC1 [Form I]

result of competitive slurrying with Form I ([3]; 1:1 ratio in 6:4 ethanol:water, room temperature, about two weeks, XRPD): conversion to Form I | result of competitive slurrying with Form I [3, 8]: conversion to Form I
SMILES: COc1ccccc1[C@H](Cn1c(=O)n(C(C)(C)C(=O)O)c(=O)c2c(C)c(-c3ncco3)sc21)OC1CCOCC1 [Form VIII]

result of competitive slurrying with Form I [3, 8]: conversion to Form I | chemical and physical stability on storage [5]: chemically and physically stable | purity after storage [5]: 99.85% | water uptake (DVS) ([4]; at 90% RH): > 4% | state or form of the material after the DVS experiment [4]: no change in form | form change on prolonged exposure to water [6]: conversion of Form VII to Form I | solubility (Aqueous solubility; water): 0.109 mg/mL (≈ 191 µM)
SMILES: COc1ccccc1[C@H](Cn1c(=O)n(C(C)(C)C(=O)O)c(=O)c2c(C)c(-c3ncco3)sc21)OC1CCOCC1 [Form VII]

IC50 (ACC1 [7]): 0.005 µM
SMILES: COc1ccccc1[C@H](Cn1c(=O)n(C(C)(C)C(=O)OC2OC(C(=O)O)C(O)C(O)C2O)c(=O)c2c(C)c(-c3ncco3)sc21)OC1CCOCC1 (stereo partly drawn) [M+glucuronide conjugate]

IC50 (ACC1 [7]): 0.022 µM
SMILES: Cc1c(-c2ncco2)sc2c1c(=O)n(C(C)(C)C(=O)O)c(=O)n2C[C@H](OC1CCOCC1)c1ccccc1O [M-CH3 metabolite]

— US11912718B2, “Solid forms of a thienopyrimidinedione ACC inhibitor and methods for production thereof” (Gilead Apollo, LLC, priority 2016, dated 2024)
